Source: ChEMBL document CHEMBL1201861, “Genomics of Drug Sensitity in Cancer screening data, Wellcome Trust Sanger Institute”

What was measured:
[1] = system: NCI-H2081; assay: cells; format: functional, cell-based; conditions: Homo sapiens;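 further: growth inhibition of human NCI-H2081 cells, read out with a cell viability assay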
Description: SANGER: Inhibition of human NCI-H2081 cell growth in a cell viability assay.

[2] = system: MZ1-PC; assay: cells; format: functional, cell-based, Homo sapiens; conditions: Homo sapiens, MZ1-PC;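 further: cell viability assay measuring growth inhibition of human MZ1-PC cells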
Description: SANGER: Inhibition of human MZ1-PC cell growth in a cell viability assay.

[3] = system: BC1 cell line; assay: SANGER: Inhibition of human BC-1 cell growth in a cell viability assay.; format: functional, cell-based
[4] = system: LB831-BLC; assay: cells; format: functional, cell-based, Homo sapiens; conditions: Homo sapiens, LB831-BLC;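 further: growth inhibition of LB831-BLC cells, read out with a cell viability assay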
Description: SANGER: Inhibition of human LB831-BLC cell growth in a cell viability assay.

[5] = system: LNCaP-Clone-FGC; assay: cells; format: functional, cell-based, Homo sapiens; conditions: Homo sapiens, LNCaP-Clone-FGC
Description: SANGER: Inhibition of human LNCaP-Clone-FGC cell growth in a cell viability assay.

[6] = system: RPMI-6666; assay: cells; format: functional, cell-based; conditions: Homo sapiens
Description: SANGER: Inhibition of human RPMI-6666 cell growth in a cell viability assay.

[7] = system: LB647-SCLC; assay: cells; format: functional, cell-based; conditions: Homo sapiens;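 further: cell growth inhibition, read out by a viability assay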
Description: SANGER: Inhibition of human LB647-SCLC cell growth in a cell viability assay.

[8] = system: Daudi; assay: cells; format: functional, cell-based; conditions: Homo sapiens;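 further: growth inhibition of Daudi cells, read out by a viability assay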
Description: SANGER: Inhibition of human Daudi cell growth in a cell viability assay.

[9] = system: GCIY; assay: cells; format: functional, cell-based, Homo sapiens; conditions: Homo sapiens, GCIY;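 further: growth inhibition of the human GCIY cell line, read out by a cell viability assay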
Description: SANGER: Inhibition of human GCIY cell growth in a cell viability assay.

[10] = system: SIMA; assay: cells; format: functional, cell-based, Homo sapiens; conditions: Homo sapiens, SIMA;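 further: growth inhibition of SIMA cells, measured with a cell viability readout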
Description: SANGER: Inhibition of human SIMA cell growth in a cell viability assay.

[11] = system: SBC-1; assay: cells; format: functional, cell-based; conditions: Homo sapiens;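 further: cell viability assay measuring growth inhibition of the SBC-1 cell line, IC50 being the concentration that halves growth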
Description: SANGER: Inhibition of human SBC-1 cell growth in a cell viability assay.

[12] = system: RPMI-8226; assay: cells; format: functional, cell-based; conditions: Homo sapiens
Description: SANGER: Inhibition of human RPMI-8226 cell growth in a cell viability assay.

[13] = system: MHH-CALL-2; assay: cells; format: functional, cell-based; conditions: Homo sapiens;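 further: growth inhibition of the cell line, read out in a cell viability assay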
Description: SANGER: Inhibition of human MHH-CALL-2 cell growth in a cell viability assay.

[14] = system: U-698-M; assay: cells; format: functional, cell-based; conditions: Homo sapiens
Description: SANGER: Inhibition of human U-698-M cell growth in a cell viability assay.

[15] = system: ECC12; assay: cells; format: functional, cell-based; conditions: Homo sapiens
Description: SANGER: Inhibition of human ECC12 cell growth in a cell viability assay.

[16] = system: TALL-1; assay: cells; format: functional, cell-based; conditions: Homo sapiens;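 further: growth inhibition of cultured human TALL-1 cells, read out by a cell viability assay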
Description: SANGER: Inhibition of human TALL-1 cell growth in a cell viability assay.

[17] = system: RL; assay: cells; format: functional, cell-based; conditions: Homo sapiens
Description: SANGER: Inhibition of human RL cell growth in a cell viability assay.

[18] = system: REH; assay: cells; format: functional, cell-based; conditions: Homo sapiens;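 further: growth inhibition of REH cells determined with a cell viability read-out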
Description: SANGER: Inhibition of human REH cell growth in a cell viability assay.

[19] = system: NCI-H345; assay: cells; format: functional, cell-based; conditions: Homo sapiens;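 further: growth inhibition of NCI-H345 cells measured with a cell viability assay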
Description: SANGER: Inhibition of human NCI-H345 cell growth in a cell viability assay.

[20] = system: LS-123; assay: cells; format: functional, cell-based, Homo sapiens; conditions: Homo sapiens, LS-123
Description: SANGER: Inhibition of human LS-123 cell growth in a cell viability assay.

[21] = system: DMS-153; assay: cells; format: functional, cell-based; conditions: Homo sapiens
Description: SANGER: Inhibition of human DMS-153 cell growth in a cell viability assay.

[22] = system: LP-1; assay: cells; format: functional, cell-based; conditions: Homo sapiens;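 further: growth inhibition of human LP-1 cells, with the read-out taken from a cell viability assay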
Description: SANGER: Inhibition of human LP-1 cell growth in a cell viability assay.

[23] = system: L-428; assay: cells; format: functional, cell-based; conditions: Homo sapiens
Description: SANGER: Inhibition of human L-428 cell growth in a cell viability assay.

[24] = system: DG-75; assay: cells; format: functional, cell-based; conditions: Homo sapiens;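 further: growth inhibition of DG-75 cells, read out with a cell viability assay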
Description: SANGER: Inhibition of human DG-75 cell growth in a cell viability assay.

[25] = system: BE-13; assay: cells; format: functional, cell-based; conditions: Homo sapiens;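 further: growth inhibition of human BE-13 cells, measured with a cell viability assay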
Description: SANGER: Inhibition of human BE-13 cell growth in a cell viability assay.

[26] = system: TE-441-T; assay: cells; format: functional, cell-based; conditions: Homo sapiens
Description: SANGER: Inhibition of human TE-441-T cell growth in a cell viability assay.

[27] = system: NCI-H748; assay: cells; format: functional, cell-based; conditions: Homo sapiens;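 further: growth inhibition of NCI-H748 cells, measured by a cell viability assay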
Description: SANGER: Inhibition of human NCI-H748 cell growth in a cell viability assay.

[28] = system: MS-1; assay: cells; format: functional, cell-based; conditions: Homo sapiens
Description: SANGER: Inhibition of human MS-1 cell growth in a cell viability assay.

[29] = system: ECC4; assay: cells; format: functional, cell-based; conditions: Homo sapiens;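 further: growth inhibition of ECC4 cells, read out with a cell viability assay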
Description: SANGER: Inhibition of human ECC4 cell growth in a cell viability assay.

[30] = system: PF-382; assay: cells; format: functional, cell-based; conditions: Homo sapiens
Description: SANGER: Inhibition of human PF-382 cell growth in a cell viability assay.

[31] = system: CPC-N; assay: cells; format: functional, cell-based; conditions: Homo sapiens;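 further: growth inhibition of CPC-N cells, with a cell viability assay as the readout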
Description: SANGER: Inhibition of human CPC-N cell growth in a cell viability assay.

[32] = system: IMR-5; assay: cells; format: functional, cell-based; conditions: Homo sapiens;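 further: growth inhibition of human IMR-5 cells, read out with a cell viability assay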
Description: SANGER: Inhibition of human IMR-5 cell growth in a cell viability assay.

[33] = system: NALM-6; assay: cells; format: functional, cell-based; conditions: Homo sapiens;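 further: growth inhibition of NALM-6 cells, read out with a cell viability assay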
Description: SANGER: Inhibition of human NALM-6 cell growth in a cell viability assay.

[34] = system: NCI-H1417; assay: cells; format: functional, cell-based; conditions: Homo sapiens;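 further: human NCI-H1417 cells, growth inhibition determined with a cell viability readout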
Description: SANGER: Inhibition of human NCI-H1417 cell growth in a cell viability assay.

[35] = system: PANC-08-13; assay: cells; format: functional, cell-based, Homo sapiens; conditions: Homo sapiens, PANC-08-13
Description: SANGER: Inhibition of human PANC-08-13 cell growth in a cell viability assay.

[36] = system: HCT-116; assay: cells; format: functional, cell-based, Homo sapiens; conditions: Homo sapiens, HCT-116
Description: SANGER: Inhibition of human HCT-116 cell growth in a cell viability assay.

[37] = system: MC-IXC; assay: cells; format: functional, cell-based, Homo sapiens; conditions: Homo sapiens, MC-IXC;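 further: growth inhibition of MC-IXC cells, read out with a cell viability assay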
Description: SANGER: Inhibition of human MC-IXC cell growth in a cell viability assay.

[38] = system: HCT-15; assay: cells; format: functional, cell-based, Homo sapiens; conditions: Homo sapiens, HCT-15;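 further: cell viability readout, IC50 reflecting suppression of HCT-15 cell growth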
Description: SANGER: Inhibition of human HCT-15 cell growth in a cell viability assay.

[39] = system: D-423MG; assay: cells; format: functional, cell-based; conditions: Homo sapiens
Description: SANGER: Inhibition of human D-423MG cell growth in a cell viability assay.

[40] = system: CFPAC-1; assay: cells; format: functional, cell-based; conditions: Homo sapiens;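 further: cell viability readout used to gauge suppression of CFPAC-1 cell proliferation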
Description: SANGER: Inhibition of human CFPAC-1 cell growth in a cell viability assay.

[41] = system: LU-99A; assay: cells; format: functional, cell-based, Homo sapiens; conditions: Homo sapiens, LU-99A;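 further: growth inhibition of LU-99A cells, read out with a cell viability assay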
Description: SANGER: Inhibition of human LU-99A cell growth in a cell viability assay.

[42] = system: RD; assay: cells; format: functional, cell-based, Homo sapiens; conditions: Homo sapiens, RD
Description: SANGER: Inhibition of human RD cell growth in a cell viability assay.

[43] = system: SJRH30; assay: cells; format: functional, cell-based; conditions: Homo sapiens;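 further: growth inhibition of human SJRH30 cells, read out with a cell viability assay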
Description: SANGER: Inhibition of human SJRH30 cell growth in a cell viability assay.

[44] = system: SW756; assay: cells; format: functional, cell-based, Homo sapiens; conditions: Homo sapiens, SW756;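 further: growth inhibition of human SW756 cells, read out with a cell viability assay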
Description: SANGER: Inhibition of human SW756 cell growth in a cell viability assay.

[45] = system: SK-N-AS; assay: cells; format: functional, cell-based, Homo sapiens; conditions: Homo sapiens, SK-N-AS;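 further: growth inhibition of human SK-N-AS cells, measured with a cell viability assay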
Description: SANGER: Inhibition of human SK-N-AS cell growth in a cell viability assay.

[46] = system: NCI-H1048; assay: cells; format: functional, cell-based; conditions: Homo sapiens;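 further: growth inhibition of human NCI-H1048 cells, read out with a cell viability assay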
Description: SANGER: Inhibition of human NCI-H1048 cell growth in a cell viability assay.

[47] = system: NCI-H2029; assay: cells; format: functional, cell-based; conditions: Homo sapiens;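 further: Read-out is a viability assay on the cultured cells, and IC50 is the concentration that suppresses cell growth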
Description: SANGER: Inhibition of human NCI-H2029 cell growth in a cell viability assay.

[48] = system: NY; assay: cells; format: functional, cell-based, Homo sapiens; conditions: Homo sapiens, NY
Description: SANGER: Inhibition of human NY cell growth in a cell viability assay.

[49] = system: SNU-423; assay: cells; format: functional, cell-based, Homo sapiens; conditions: Homo sapiens, SNU-423
Description: SANGER: Inhibition of human SNU-423 cell growth in a cell viability assay.

[50] = system: NCI-H2228; assay: cells; format: functional, cell-based, Homo sapiens; conditions: Homo sapiens, NCI-H2228;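 further: growth inhibition of human NCI-H2228 cells, read out by a cell viability assay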
Description: SANGER: Inhibition of human NCI-H2228 cell growth in a cell viability assay.

[51] = system: HCC70; assay: cells; format: functional, cell-based, Homo sapiens; conditions: Homo sapiens, HCC70;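 further: cell viability assay measuring how strongly the compound suppresses proliferation of HCC70 cells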
Description: SANGER: Inhibition of human HCC70 cell growth in a cell viability assay.

[52] = system: TGBC11TKB; assay: cells; format: functional, cell-based; conditions: Homo sapiens;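 further: growth inhibition of human TGBC11TKB cells, measured by a cell viability assay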
Description: SANGER: Inhibition of human TGBC11TKB cell growth in a cell viability assay.

[53] = system: SW900; assay: cells; format: functional, cell-based; conditions: Homo sapiens;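 further: IC50 is the concentration that inhibits SW900 cell growth, measured by a cell viability assay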
Description: SANGER: Inhibition of human SW900 cell growth in a cell viability assay.

[54] = system: KU-19-19; assay: cells; format: functional, cell-based, Homo sapiens; conditions: Homo sapiens, KU-19-19
Description: SANGER: Inhibition of human KU-19-19 cell growth in a cell viability assay.

[55] = system: NCI-H1666; assay: cells; format: functional, cell-based; conditions: Homo sapiens;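 further: growth inhibition of the cell line, read out with a cell viability assay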
Description: SANGER: Inhibition of human NCI-H1666 cell growth in a cell viability assay.

## CC1=C2C[C@H]3[C@@H](CC=C4C[C@@H](O)CC[C@@]43C)[C@@H]2CC[C@]12O[C@@H]1C[C@H](C)CN[C@H]1[C@H]2C [CYCLOPAMINE]
[1]
  IC50: > 16 µM
[2]
  IC50: > 16 µM
[3]
  IC50: > 16 µM
[4]
  IC50: > 16 µM
[5]
  IC50: > 16 µM
[6]
  IC50: > 16 µM
[7]
  IC50: > 16 µM
[8]
  IC50: > 16 µM
[9]
  IC50: > 16 µM
[10]
  IC50: > 16 µM
[11]
  IC50: > 16 µM
[12]
  IC50: > 16 µM
[13]
  IC50: > 16 µM
[14]
  IC50: > 16 µM
[15]
  IC50: > 16 µM
[16]
  IC50: > 16 µM
[17]
  IC50: > 16 µM
[18]
  IC50: > 16 µM
[19]
  IC50: > 16 µM
[20]
  IC50: > 16 µM
[21]
  IC50: > 16 µM
[22]
  IC50: > 16 µM
[23]
  IC50: > 16 µM
[24]
  IC50: > 16 µM
[25]
  IC50: > 16 µM
[26]
  IC50: > 16 µM
[27]
  IC50: > 16 µM
[28]
  IC50: > 16 µM
[29]
  IC50: > 16 µM
[30]
  IC50: > 16 µM
[31]
  IC50: > 16 µM
[32]
  IC50: > 16 µM
[33]
  IC50: > 16 µM
[34]
  IC50: > 16 µM

## O=c1cc(-c2cccc3c2Sc2ccccc2S3)oc(N2CCOCC2)c1 [KU-55933]
[35]
  IC50: > 10 µM
[36]
  IC50: > 10 µM
[37]
  IC50: > 10 µM
[38]
  IC50: > 10 µM
[39]
  IC50: > 10 µM
[2]
  IC50: > 10 µM
[4]
  IC50: > 10 µM
[40]
  IC50: > 10 µM
[5]
  IC50: > 10 µM
[41]
  IC50: > 10 µM
[9]
  IC50: > 10 µM
[12]
  IC50: > 10 µM
[42]
  IC50: > 10 µM
[43]
  IC50: > 10 µM
[44]
  IC50: > 10 µM
[45]
  IC50: > 10 µM
[20]
  IC50: > 10 µM
[46]
  IC50: > 10 µM
[47]
  IC50: > 10 µM
[48]
  IC50: > 10 µM
[23]
  IC50: > 10 µM
[25]
  IC50: > 10 µM
[49]
  IC50: > 10 µM
[28]
  IC50: > 10 µM
[50]
  IC50: > 10 µM
[51]
  IC50: > 10 µM
[52]
  IC50: > 10 µM
[53]
  IC50: > 10 µM
[54]
  IC50: > 10 µM
[55]
  IC50: > 10 µM

## C=C1C(=O)O[C@@H]2C3O[C@]3(C)CC/C=C(\C)CC[C@@H]12 (stereo partly specified)
[1]
  IC50: > 5 µM
[2]
  IC50: > 5 µM
[3]
  IC50: > 5 µM
[4]
  IC50: > 5 µM
[5]
  IC50: > 5 µM
[6]
  IC50: > 5 µM
[7]
  IC50: > 5 µM
[8]
  IC50: > 5 µM
[9]
  IC50: > 5 µM
[10]
  IC50: > 5 µM
[11]
  IC50: > 5 µM
[12]
  IC50: > 5 µM
[13]
  IC50: > 5 µM
[14]
  IC50: > 5 µM
[15]
  IC50: > 5 µM
[16]
  IC50: > 5 µM
[17]
  IC50: > 5 µM
[18]
  IC50: > 5 µM
[19]
  IC50: > 5 µM
[20]
  IC50: > 5 µM
[21]
  IC50: > 5 µM
[22]
  IC50: > 5 µM
[23]
  IC50: > 5 µM
[24]
  IC50: > 5 µM
[25]
  IC50: > 5 µM
[26]
  IC50: > 5 µM
[27]
  IC50: > 5 µM
[28]
  IC50: > 5 µM
[29]
  IC50: > 5 µM
[30]
  IC50: > 5 µM
[31]
  IC50: > 5 µM
[32]
  IC50: > 5 µM
[33]
  IC50: > 5 µM
[34]
  IC50: > 5 µM

## CN(Cc1cnc2nc(N)nc(N)c2n1)c1ccc(C(=O)N[C@@H](CCC(=O)O)C(=O)O)cc1 [METHOTREXATE]
[35]
  IC50: > 0.2 µM
[36]
  IC50: > 0.2 µM
[37]
  IC50: > 0.2 µM
[39]
  IC50: > 0.2 µM
[2]
  IC50: > 0.2 µM
[4]
  IC50: > 0.2 µM
[40]
  IC50: > 0.2 µM
[5]
  IC50: > 0.2 µM
[41]
  IC50: > 0.2 µM
[9]
  IC50: > 0.2 µM
[11]
  IC50: > 0.2 µM
[12]
  IC50: 0.101 µM
[42]
  IC50: > 0.2 µM
[44]
  IC50: > 0.2 µM
[45]
  IC50: > 0.2 µM
[20]
  IC50: > 0.2 µM
[46]
  IC50: > 0.2 µM
[47]
  IC50: > 0.2 µM
[48]
  IC50: > 0.2 µM
[23]
  IC50: > 0.2 µM
[25]
  IC50: 0.0387 µM
[49]
  IC50: > 0.2 µM
[28]
  IC50: 0.0453 µM
[50]
  IC50: > 0.2 µM
[51]
  IC50: > 0.2 µM
[52]
  IC50: > 0.2 µM
[53]
  IC50: > 0.2 µM
[54]
  IC50: > 0.2 µM
[55]
  IC50: > 0.2 µM

## Cn1cc(C2=C(c3ccc(Cl)cc3Cl)C(=O)NC2=O)c2ccccc21 [SB-216763]
[35]
  IC50: > 10 µM
[36]
  IC50: > 10 µM
[37]
  IC50: > 10 µM
[38]
  IC50: > 10 µM
[39]
  IC50: > 10 µM
[2]
  IC50: > 10 µM
[4]
  IC50: > 10 µM
[40]
  IC50: > 10 µM
[5]
  IC50: > 10 µM
[41]
  IC50: > 10 µM
[9]
  IC50: > 10 µM
[11]
  IC50: > 10 µM
[12]
  IC50: > 10 µM
[42]
  IC50: > 10 µM
[43]
  IC50: > 10 µM
[45]
  IC50: > 10 µM
[20]
  IC50: > 10 µM
[46]
  IC50: > 10 µM
[47]
  IC50: > 10 µM
[48]
  IC50: > 10 µM
[23]
  IC50: > 10 µM
[25]
  IC50: > 10 µM
[28]
  IC50: > 10 µM
[50]
  IC50: > 10 µM
[51]
  IC50: > 10 µM
[52]
  IC50: > 10 µM
[53]
  IC50: > 10 µM
[54]
  IC50: > 10 µM
[55]
  IC50: > 10 µM
